# From patent publication US20020165237A1, “Treatment of the insulin resistance syndrome” (priority 2000, published 2002)
# Experiments:
# ob/ob mice [1] = experiment: Plasma glucose, cGMP and triglyceride levels in ob/ob mice, oral gavage, 5 day study; type: in vivo; conditions: mean ± SEM; for Changes in Plasma Glucose Concentrations: over 5 day period; for Plasma Triglyceride Level: day 5, 3 hours after dose
# Protocol: (§1) The selective PDE5 inhibitor compounds to be tested were solubilized in 10% DMSO/0.1% pluronics and dosed via oral gavage using mouse oral feeding needles (20 gauge, Popper & Sons, Inc., New Hyde Park, N.Y.). A volume of 4 ml/kg weight was administered for each dose. Compounds were tested at doses ranging from 1-50 mg/kg. Alternatively, the test selective PDE5 inhibitor compound was administered in the drinking water and found to produce similar reductions in plasma glucose and triglycerides to the reductions observed for the same compound when administered by oral gavage.
# (§2) Male ob/ob mice obtained from Jackson Laboratories (Bar Harbor, ME) were used in the studies at 6 to 10 weeks of age. Mice were housed five per cage and allowed free access to D11 mouse chow (Purina, Brentwood, Mo.) and water.
# (§3) Mice were allowed to acclimate to the Pfizer animal facilities for 1 week prior to the start of the study. On day one, retro-orbital blood samples were obtained and plasma glucose was determined as described hereinafter. […] On day one, mice were dosed with vehicle or a test selective PDE5 inhibitor compound only in the afternoon. Subsequently, mice were dosed twice a day on day 2-4 in the morning and in the afternoon. On day 5, the mice received an a.m. dose and bled 3 hours later for plasma preparation for glucose and triglyceride analysis as described below. Alternatively, test selective PDE5 inhibitor compound was administered in the drinking water commencing on the afternoon of day 1 and continuing through day 5, when mice were then bled for plasma preparation for glucose and triglyceride analysis as described below. Terminal plasma samples were collected on day 5 following the retro-orbital sinus bleed as described below. Body weight was measured on days 1 and 5 of the study, and food consumption was assessed over the 5 day period.
# (§4) On the morning of the last day of the study mice were dosed with test compound or vehicle at approximately 8:00 am. Three hours after dosing, 25 μL of blood was obtained via the retro-orbital sinus and added to 100 μL of 0.025% heparinized-saline in Denville Scientific microtubes. The tubes were spun at the highest setting in a Beckman Microfuge 12 for 2 minutes. Plasma was collected for plasma glucose and triglyceride determination. The mice were then sacrificed by decapitation and ˜1 ml of blood was collected in Becton-Dickinson Microtainer brand plasma separator tubes with lithium heparin. The tubes were spun in a Beckman Microfuge 12 at the maximum setting for five minutes. Plasma was collected in 1.5 ml Eppendorf tubes and snap frozen in liquid nitrogen. Plasma samples were stored at −80° C. until analyzed.
# (§5) Plasma glucose and triglycerides were measured using the Alcyon Clinical Chemistry Analyzer (Abbott Laboratories, Abbott Park, Ill.) using kits supplied by Abbott. Plasma cGMP was measured using the Biotrak enzyme-immunoassay system by Amersham (Piscataway, N.J.). Via a similar technique the plasma insulin can be assessed by the Mercodia ELISA Insulin kit by ALPCO (Uppsala, Sweden). All assays were conducted according to instructions provided by the manufacturers.
# (§6) Comparisons between drug treatments and appropriate vehicles were done by Student's t-test.
# ob/ob mice [2] = experiment: Plasma glucose and triglyceride levels in ob/ob mice, compound administered in the drinking water, 5 day study; type: in vivo; conditions: for Plasma Triglyceride Level: day 5, mean ± SEM; for Changes in Plasma Glucose Concentrations: over 5 day period, mean ± SEM
# Protocol: as §1, §2, §3, §4, §5, §6
# [3] = tested on: non-diabetic subjects with the insulin resistance syndrome; experiment: Clinical Trial Data 1: 28-day clinical trial with sildenafil, serum triglyceride levels; type: in vivo, human; conditions: for Fall in serum triglycerides from baseline / Fall in serum triglyceride levels: 28 days; for Fall in serum triglyceride levels: non-diabetic subjects with IRS, preliminary data
# Protocol: In a 28-day clinical trial with sildenafil, serum triglyceride levels were obtained before and at the end of dosing from non-diabetic subjects. Doses included in the study were 10 mg, 25 mg and […] of sildenafil or placebo, dosed once daily. These subjects had the insulin resistance syndrome, as defined by the risk factors as defined hereinbefore. Data are presented in tables 5 and 6 below to illustrate that subjects had evidence of the insulin resistance syndrome. Coronary artery disease (CAD)/ischaemic heart disease (1HD) is one clinical end-point in subjects having the Insulin Resistance Syndrome. For this reason the presence of CAD/IHD was taken as evidence to support the existence of the Insulin Resistance Syndrome in patients with only one of the defined risk factors.
# [4] = 10 mg once daily, baseline 255 mg/dl
# [5] = 25 mg once daily, baseline 213 mg/dl
# [6] = 50 mg once daily, baseline 191 mg/dl
compound,measurement,setting,value
"CCCOc1ccc(S(=O)(=O)N2CCN(CC)CC2)cc1-c1nc2c(CC)n(Cc3ccccn3)nc2c(=O)[nH]1 [PDE5 A, 3-ethyl-5-[5-(4-ethylpiperazin-1-ylsulphonyl)-2-n-propoxyphenyl]-2-(pyridin-2-yl)methyl-2,6-dihydro-7H-pyrazolo[4,3-d]pyrimidin-7-one]",Changes in Plasma Glucose Concentrations,ob/ob mice [1]; 10 mg/kg oral gavage twice a day,-115 ± 34 mg/dL
same,Plasma Triglyceride Level,ob/ob mice [1]; 10 mg/kg oral gavage,163 ± 10 mg/dL
same,Changes in Plasma Glucose Concentrations,ob/ob mice [1]; 50 mg/kg oral gavage twice a day,-105 ± 25 mg/dL
"CCCc1nn(C)c2c(=O)[nH]c(-c3cc(C(=O)CN4CCOCC4)ccc3OCC)nc12 [PDE5 B, 5-(2-ethoxy-5-morpholinoacetylphenyl)-1-methyl-3-n-propyl-1,6-dihydro-7H-pyrazolo[4,3-d]pyrimidin-7-one]",Changes in Plasma Glucose Concentrations,ob/ob mice [1]; 25 mg/kg oral gavage twice a day,-97 ± 32 mg/dL
same,Plasma Triglyceride Level,ob/ob mice [1]; 25 mg/kg oral gavage,143 ± 7^ mg/dl
"CCCc1nn(C)c2c(=O)[nH]c(-c3cc(S(=O)(=O)N4CCN(C)CC4)ccc3OCC)nc12 [PDE5 C, 5-[2-ethoxy-5-(4-methyl-1-piperazinylsulphonyl)phenyl]-1-methyl-3-n-propyl-1,6-dihydro-7H-pyrazolo[4,3-d]pyrimidin-7-one]",Plasma Triglyceride Level,ob/ob mice [2]; 9 mg/kg in the drinking water,163 ± 14 mg/dL
same,Changes in Plasma Glucose Concentrations,ob/ob mice [2]; 9 mg/kg in the drinking water,-27 ± 34 mg/dL
same,Plasma Triglyceride Level,ob/ob mice [2]; 22 mg/kg in the drinking water,212 ± 20 mg/dL
same,Changes in Plasma Glucose Concentrations,ob/ob mice [2]; 22 mg/kg in the drinking water,-15 ± 27 mg/dL
same,Plasma Triglyceride Level,ob/ob mice [2]; 45 mg/kg in the drinking water,151 ± 10 mg/dL
same,Changes in Plasma Glucose Concentrations,ob/ob mice [2]; 45 mg/kg in the drinking water,−36 ± 22^ mg/dl
same,Fall in serum triglycerides from baseline,[3]; [4],about 40%
same,Fall in serum triglyceride levels,[3]; [4],100.3 mg/dL
same,Fall in serum triglycerides from baseline,[3]; [5],~31%
same,Fall in serum triglyceride levels,[3]; [5],67.3 mg/dL
same,Fall in serum triglycerides from baseline,[3]; [6],~12%
same,Fall in serum triglyceride levels,[3]; [6],23.9 mg/dL
same,Reduction of serum triglycerides compared to placebo,"[3]; sildenafil group vs placebo, p=0.0457",statistically significantly different compared to placebo
same,HDL compared to placebo,"[3]; sildenafil group vs placebo, p=0.0539",trend
